In US20240307426A1, “USE OF SGLT-2 INHIBITORS FOR THE PREVENTION AND/OR TREATMENT OF RENAL DISEASES IN NON-HUMAN MAMMALS” (BOEHRINGER INGELHEIM VETMEDICA GMBH, priority 2021, published 2024):

Test system: cats with chronic kidney disease (CKD)
Test: Exploratory clinical field trial in cats with CKD (Example 3)
Format: in vivo, cat
Design: key to IRIS Stage (based on serum creatinine level) / IRIS Stage (based on creatinine level) / IRIS Stage (based on the creatinine level): IRIS CKD stage assigned from serum creatinine (IRIS 2019)
Settings: for Phosphorus: ref 0.8-2.2; for Serum creatinine: ref 0.9-2.3; for Potassium: ref 3.3-5.8; for UPC: ref <0.33
Procedure: The clinical trial was conducted at three animal clinics. Overall, 9 cats with chronic kidney disease (CKD) were included in the study and treated once daily orally with 1 mg/kg bodyweight velagliflozin for up to 150 days (depending on the time of enrollment).
Diagnosis of CKD was based on two measurements of serum creatinine concentration at least 2 weeks apart from each other (historical value and screening, and value at screening in fasted cats), as recommended by the International Renal Interest Society (IRIS 2019). In order to qualify for enrollment, serum creatinine levels needed to be ≥2.2 mg/dL, but <5.0 mg/dL.
Disease staging throughout the study was performed based on serum creatinine levels in accordance with the IRIS CKD staging (IRIS 2019).
All other cats were treated for >90 days had at least data for two time points under treatment available and were therefore evaluated. Progression of the disease, as well as IRIS staging in this study was based on the most reliable biomarker: serum creatinine.

[1] = case 200-001, 1 mg/kg po once daily
[2] = case 200-001, 1 mg/kg po once daily, whole study
[3] = case 200-001, Visit 1 (Day 30), 1 mg/kg po once daily
[4] = case 200-001, Visit 2 (Day 90), 1 mg/kg po once daily
[5] = case 200-001, Visit 3 (Day 111), 1 mg/kg po once daily
[6] = case 200-001, screening visit (before treatment)
[7] = case 200-003 (IRIS stage 3), removed early on day 30
[8] = case 200-004, 1 mg/kg po once daily, whole study
[9] = case 200-004, Visit 1 (Day 30), 1 mg/kg po once daily
[10] = case 200-004, Visit 2 (Day 90), 1 mg/kg po once daily
[11] = case 200-004, Visit 3 (Day 143), 1 mg/kg po once daily
[12] = case 200-004, screening visit (before treatment)
[13] = case 200-005, 1 mg/kg po once daily
[14] = case 200-005, 1 mg/kg po once daily, whole study
[15] = case 200-005, Visit 1 (Day 30), 1 mg/kg po once daily
[16] = case 200-005, Visit 2 (Day 90), 1 mg/kg po once daily
[17] = case 200-005, Visit 3 (Day 128), 1 mg/kg po once daily
[18] = case 200-005, screening visit (before treatment)
[19] = case 200-006, 1 mg/kg po once daily
[20] = case 200-006, 1 mg/kg po once daily, whole study
[21] = case 200-006, Visit 1 (Day 30), 1 mg/kg po once daily
[22] = case 200-006, Visit 2 (Day 90), 1 mg/kg po once daily

## N#Cc1ccc([C@@H]2O[C@H](CO)[C@@H](O)[C@H](O)[C@H]2O)cc1Cc1ccc(C2CC2)cc1 [velagliflozin, Velagliflozin]
3 of the seven evaluated cats, 1 mg/kg po once daily
  decrease in serum creatinine within the observation period: ≥ 10%
IRIS stage 2 and 3 CKD cats, 1 mg/kg orally once daily
  renal parameters and clinical signs: stabilized or even improved
All cats except cat 200-004 (no data recorded)
  expected glucosuric effect: confirmed
All cats under oral treatment with 1 mg/kg bodyweight
  Hematocrit: remained within the reference range
All cats, during the course of the study
  Systolic blood pressure: < 160 mmHg
All evaluated cases, except one measurement for case 200-001 on day 90
  serum phosphate levels: remained within the laboratories reference range throughout the study
All patients, 1 mg/kg po once daily
  Proteinuria (UPC): ≤ 0.33
All treated cats, 1 mg/kg po once daily
  Serum potassium levels: stayed within the reference range
[1]
  adverse events: Two adverse events were reported for this patient: pectin responsive diarrhea for one day and pancreatitis
  expected glucosuric effect: confirmed
[2]
  Quality of life according to the owner (course): remained very good
  Serum potassium levels (course): decreased within the reference range
  UPC (course): improved from 0.4 to 0.2
  appetite and drinking behavior (course): remained normal
  condition (clinical signs and biochemical parameters): stabilization of the condition
  course of BUN: remained stable
  course of serum creatinine: remained stable with one single measurement on Day 90 being increased
  total urine protein: reduced
[3]
  BUN: 38 mg/dL
  IRIS Stage (based on the creatinine level): 2
  Owner assessment - quality of life: very good
  Owner assessment of the appetite: normal
  Owner assessment of the drinking behavior: normal
  Systolic blood pressure: 126.7 mmHg
  Phosphorus: 1.3 mmol/L
  Serum creatinine: 2.6 mg/dL
  Potassium: 4.6 mmol/L
Case 200-001, Visit 1 (Day 30), 1 mg/kg po once daily, ref 28.2-52.7
  Hematocrit: 38.5%
[4]
  BUN: 47 mg/dL
  IRIS Stage (based on the creatinine level): 3
  Owner assessment - quality of life: very good
  Owner assessment of the appetite: normal
  Owner assessment of the drinking behavior: normal
  Systolic blood pressure: 122.7 mmHg
  Phosphorus: 2.4 mmol/L
  Serum creatinine: 3.2 mg/dL
  Potassium: 4.3 mmol/L
  UPC: 0.2
Case 200-001, Visit 2 (Day 90), 1 mg/kg po once daily, ref 28.2-52.7
  Hematocrit: 34.6%
[5]
  BUN: 41 mg/dL
  IRIS Stage (based on the creatinine level): 2
  Owner assessment - quality of life: very good
  Owner assessment of the appetite: normal
  Owner assessment of the drinking behavior: normal
  Systolic blood pressure: 131.3 mmHg
  Phosphorus: 1.6 mmol/L
  Serum creatinine: 2.6 mg/dL
  Potassium: 4.3 mmol/L
Case 200-001, Visit 3 (Day 111), 1 mg/kg po once daily, ref 28.2-52.7
  Hematocrit: 32.6%
[6]
  BUN: 39 mg/dL
  IRIS Stage (based on the creatinine level): 2
  Owner assessment - quality of life: very good
  Owner assessment of the appetite: normal
  Owner assessment of the drinking behavior: normal
  Systolic blood pressure: 152.0 mmHg
  Phosphorus: 1.4 mmol/L
  Serum creatinine: 2.6 mg/dL
  Potassium: 5.2 mmol/L
  UPC: 0.4
Case 200-001, screening visit (before treatment), ref 28.2-52.7
  Hematocrit: 37.4%
[7]
  appetite and drinking behavior: improving to normal
  laboratory parameters: worsening of a single measurement of laboratory parameters
  quality of life: good quality of life
Case 200-004, 1 mg/kg po once daily
  adverse events: No adverse event was reported
[8]
  Quality of life according to the owner (course): remained very good
  appetite and drinking behavior (course): remained normal
  change of IRIS stage of the disease: from 3 to 2
  condition (biochemical parameters): improvement of the condition
  course of serum creatinine: decreased by a clinically relevant amount
[9]
  BUN: 42 mg/dL
  IRIS Stage (based on serum creatinine level): 2
  Owner assessment - quality of life: very good
  Owner assessment of the appetite: normal
  Owner assessment of the drinking behavior: normal
  Systolic blood pressure: 148.0 mmHg
  Phosphorus: 1.3 mmol/L
  Serum creatinine: 2.7 mg/dL
  Potassium: 4.5 mmol/L
Case 200-004, Visit 1 (Day 30), 1 mg/kg po once daily, ref 28.2-52.7
  Hematocrit: 37.0%
[10]
  BUN: 36 mg/dL
  IRIS Stage (based on serum creatinine level): 2
  Owner assessment - quality of life: very good
  Owner assessment of the appetite: normal
  Owner assessment of the drinking behavior: normal
  Systolic blood pressure: 129.3 mmHg
  Phosphorus: 1.3 mmol/L
  Serum creatinine: 2.5 mg/dL
  Potassium: 4.9 mmol/L
Case 200-004, Visit 2 (Day 90), 1 mg/kg po once daily, ref 28.2-52.7
  Hematocrit: 32.9%
[11]
  BUN: 38 mg/dL
  IRIS Stage (based on serum creatinine level): 2
  Owner assessment - quality of life: very good
  Owner assessment of the appetite: normal
  Owner assessment of the drinking behavior: normal
  Systolic blood pressure: 148.7 mmHg
  Phosphorus: 1.2 mmol/L
  Serum creatinine: 2.6 mg/dL
  Potassium: 4.9 mmol/L
Case 200-004, Visit 3 (Day 143), 1 mg/kg po once daily, ref 28.2-52.7
  Hematocrit: 34.8%
[12]
  BUN: 46 mg/dL
  IRIS Stage (based on serum creatinine level): 3
  Owner assessment - quality of life: very good
  Owner assessment of the appetite: normal
  Owner assessment of the drinking behavior: normal
  Systolic blood pressure: 130.7 mmHg
  Phosphorus: 1.2 mmol/L
  Serum creatinine: 2.9 mg/dL
  Potassium: 4.9 mmol/L
  UPC: 0.1
Case 200-004, screening visit (before treatment), ref 28.2-52.7
  Hematocrit: 33.4%
[13]
  Quality of life according to the owner: good
  adverse events: No adverse event was reported
  expected glucosuric effect: confirmed
[14]
  Serum potassium levels (course): remained stable
  UPC ratio (remained at): 0.1
  appetite and drinking behavior (course): remained normal
  condition (clinical signs and biochemical parameters): stabilization of the condition
  course of BUN: remained stable
  course of serum creatinine: decreased
  total urine protein: reduced
[15]
  BUN: 37 mg/dL
  IRIS Stage (based on the creatinine level): 2
  Owner assessment - quality of life: very good
  Owner assessment of the appetite: normal
  Owner assessment of the drinking behavior: normal
  Systolic blood pressure: 148.0 mmHg
  Phosphorus: 1.0 mmol/L
  Serum creatinine: 2.0 mg/dL
  Potassium: 4.0 mmol/L
Case 200-005, Visit 1 (Day 30), 1 mg/kg po once daily, ref 28.2-52.7
  Hematocrit: 45.1%
[16]
  BUN: 32 mg/dL
  IRIS Stage (based on the creatinine level): 2
  Owner assessment - quality of life: good
  Owner assessment of the appetite: normal
  Owner assessment of the drinking behavior: normal
  Systolic blood pressure: 130.0 mmHg
  Phosphorus: 1.3 mmol/L
  Serum creatinine: 1.9 mg/dL
  Potassium: 3.9 mmol/L
  UPC: 0.1
Case 200-005, Visit 2 (Day 90), 1 mg/kg po once daily, ref 28.2-52.7
  Hematocrit: 39.2%
[17]
  BUN: 37 mg/dL
  IRIS Stage (based on the creatinine level): 2
  Owner assessment - quality of life: good
  Owner assessment of the appetite: normal
  Owner assessment of the drinking behavior: normal
  Systolic blood pressure: 123.3 mmHg
  Phosphorus: 1.1 mmol/L
  Serum creatinine: 1.9 mg/dL
  Potassium: 4.0 mmol/L
Case 200-005, Visit 3 (Day 128), 1 mg/kg po once daily, ref 28.2-52.7
  Hematocrit: 40.4%
[18]
  BUN: 37 mg/dL
  IRIS Stage (based on the creatinine level): 2
  Owner assessment - quality of life: very good
  Owner assessment of the appetite: normal
  Owner assessment of the drinking behavior: normal
  Systolic blood pressure: 139.3 mmHg
  Serum creatinine: 2.2 mg/dL
  Potassium: 4.9 mmol/L
  UPC: 0.1
Case 200-005, screening visit (before treatment), ref 28.2-52.7
  Hematocrit: 42.3%
[19]
  adverse events: Three adverse events were reported: diarrhoea, vomitus as well as cystitis
  expected glucosuric effect: confirmed
[20]
  Quality of life according to the owner (course): remained good
  Serum creatinine and BUN (course): remained stable
  Serum potassium levels (course): remained within the reference range
  Total urine protein and UPC: remained within the reference range
  appetite (course): improved to normal
  condition (clinical signs and biochemical parameters): stable condition
Case 200-006, 1 mg/kg po once daily, whole study, worsening potentially due to cystitis
  drinking behavior (course): improved to normal but worsened again to excessive
[21]
  BUN: 41 mg/dL
  IRIS Stage (based on the creatinine level): 2
  Owner assessment - quality of life: good
  Owner assessment of the appetite: normal
  Owner assessment of the drinking behavior: normal
  Systolic blood pressure: 139.3 mmHg
  Phosphorus: 1.9 mmol/L
  Serum creatinine: 2.7 mg/dL
  Potassium: 3.9 mmol/L
Case 200-006, Visit 1 (Day 30), 1 mg/kg po once daily, ref 28.2-52.7
  Hematocrit: 38.1%
[22]
  BUN: 30 mg/dL
  IRIS Stage (based on the creatinine level): 2
  Owner assessment - quality of life: good
  Owner assessment of the appetite: normal
  Owner assessment of the drinking behavior: excessive
